# Test results as given in US11390437B2, “Pharmaceutical formulation” (priority 2002, dated 2022).
# Entries after “also recorded” stand apart in the source; their conditions may differ.
# Assays:
# [1] = Cannabinoid uptake, pump action sublingual spray; assay type: in vivo, human; details: dose approx 21 mg THC and 35 mg CBD; for Cmax / AUC(0-t): human, plasma; for AUC(0-t): read-out: AUC 0-12
# Description: On moving to a pump action sublingual spray (following problems solubilising cannabinoids with hydrofluorocarbon propellant systems) the applicant obtained the results noted in Table 4. The solvent system comprised 50:50 ethanol to propylene glycol (v/v ratio) with THC 25 mg/ml; CBD 50 mg/ml and THC/CBD 25 mg/ml plus 50 mg/ml respectively.
# The proportion of 11 hydroxy tetrahydro cannabinol to THC (AUC 0-12) was about 1.6. The profile for each cannabinoid was similar irrespective of the formulation (THC, CBD, THC plus CBD).
# (§1) The data obtained is illustrated in FIGS. 1a, 1b and 2, which show the mean plasma concentrations for the formulations identified with reference to Tables 3 and 4.
# That effective delivery of the cannabinoids can be achieved in a vehicle consisting of ethanol and propylene glycol is illustrated by the plasma levels shown in FIGS. 1a, 1b and 2. These show, respectively, formulations containing the high THC and high CBD formulations in FIGS. 1a and 1b. Similarly, the effectiveness of a defined ratio formulation THC:CBD 1:1 is illustrated in FIG. 2.
# [2] = Cannabinoid uptake in patients, drops applied sublingually; assay type: in vivo, human; details: sublingual drops, dose approx 20 mg of each cannabinoid; for Cmax / AUC(0-t): human, plasma; for AUC(0-t): read-out: AUC 0-12
# Description: Initially the applicant looked at cannabinoid uptake in patients by applying drops sublingually (BDS dissolved in a mixture of a glycerol/propylene glycol and ethanol) THC 5 mg/ml, CBD 5 mg/ml and THC/CBD 5 mg/ml plus 5 mg/ml.
# The results are noted in Table 3 below:
# The proportion of 11 hydroxy tetrahydro cannabinol to THC (AUC 0-12) was about 1.9 indicating a significant amount of oral ingestion may have occurred.
# as §1
# [3] = CNS effect; Carlini et al, 1973; cited from earlier work
# [4] = Effect of light on stability of methanolic CBME solutions, HPLC; assay type: physicochemical; details: for residual compound: amber glass protected, 112 days
# Description: Experiments were set up to follow the effects of white light on the stability of methanolic solutions of THC, CBD or THCV. Following preliminary knowledge that light of different wavelengths may have differing effects on compound stability (viz. tretinoin is stable only in red light or darkness), samples were wrapped in coloured acetate films or in light exclusive foil. A concurrent experiment used charcoal treated CBME to study the effects of the removal of plant pigments on the degradation process.
# Cannabinoids: 1 mg/ml solutions of CBME were made up in AR methanol. Methanolic solutions of CBME (100 mg/ml) were passed through charcoal columns (Biotage Flash 12AC 7.5 cm cartridges, b/no. 273012S) and were then diluted to 1 mg/ml. Solutions were stored in soda-glass vials, which were tightly screw capped and oversealed with stretch film. Tubes were wrapped in coloured acetate films as follows:
# Solutions were also filled into the amber glass U-save vials; these were sealed with a septum and oversealed. One tube of each series of samples was tightly wrapped in aluminium foil in order to completely exclude light. This served as a “dark” control to monitor the contribution of ambient temperature to the degradation behaviour. All of the above tubes were placed in a box fitted with 2×40 watt white Osram fluorescent tubes. The walls of the box were lined with reflective foil and the internal temperature was monitored at frequent intervals.
# A further tube of each series was stored at −20° C. to act as a pseudo to the reference sample; in addition, one tube was exposed directly to light without protection. Samples were withdrawn for chromatographic analysis at intervals up to 112 days following the start of the study. The study was designated AS01201/AX282.
# (§2) Samples of the test solutions were withdrawn and diluted as appropriate for HPLC and TLC analysis. HPLC was carried out in accordance with TM GE.004.V1 (SOPam058). TLC was performed on layers on Silica gel (MN SilG/UV) in accordance with TM GE.002.V1 (SOPam056).
# The results from the HPLC analysis of samples drawn from the stored, light exposed solutions, are plotted and presented as FIGS. 6 and 6a (THC before and after charcoal treatment), and FIGS. 7 and 7a (CBD before and after charcoal treatment).
# [5] = postural hypotension in naïve patients, hypertension reported on prolonged usage; cited from earlier work
# [6] = Effect of light on stability, TLC qualitative analysis; assay type: physicochemical
# Description: as §2
# The evaluation of the light degraded solutions using thin layer chromatography, used both the existing normal phase system (i.e. Silica stationary phase and hexane/diethyl ether as mobile phase) and two additional systems, capable of resolving more polar or polymeric products formed during the degradation processes.
# At the same time, there was an increase in the intensity of Fast Blue B staining material running at, or close to, the origin.
# [7] = THC alone versus same quantity of THC as Cannabis extract; cited from earlier work
# [8] = Relative thermo-oxidative stability; details: THC versus CBD
# [9] = Absorption (AUC) by route of administration, Example 3; details: after oropharyngeal (buccal) versus sublingual administration
# [10] = Reports of subjects taking THCV; details: compared with THC
structure (smiles),measurement,setting,value
"CCCCCc1cc(O)c2c(c1)OC(C)(C)[C@@H]1CCC(C)=C[C@@H]21 [THC, Δ^9-tetrahydrocannabinol]",Plasma levels after 6 hours,[1],Plasma levels after 6 hours were about 1 ng/ml THC and 1 ng/ml CBD
same,Cmax,[1],6 ng/mL
same,AUC(0-t),[1],~16 ng·h/mL
same,Cmax,[2],6 ng/mL
same,AUC(0-t),[2],~16 ng·h/mL
same,Plasma levels after 6 hours,[2],~1 ng/mL
same,Anticonvulsant,[3],† THC is pro convulsant
same,stability of charcoal treated versus untreated extract,[4]; all solutions except those stored in the dark and at −20° C.,significant improvements to the stability
same,effect on blood pressure,[5],§ THC has a biphasic effect on blood pressure; in naïve patients it may produce postural hypotension and it has also been reported to produce hypertension on prolonged usage.
same,TLC spot intensity,"[6]; day 112, all colour filtered lights, hexane/diethyl ether system",reduction in the intensity
same,TLC spot intensity,"[6]; day 112, foil protected solution",none of these effects
same,degree of pain relief,[7],lower degree of pain relief than the same quantity of THC given as an extract of Cannabis
same,relative thermo-oxidative stability,[8],less stable
"CCCCCc1cc(O)c2c(c1)OC(C)(C)[C@@H]1CCC(CO)=C[C@@H]21 [11-OH THC, 11 hydroxy tetrahydro cannabinol]",reduction in the amount of 11-hydroxy metabolite detected,[9],approximately 25%
"C=C(C)[C@@H]1CCC(C)=C[C@H]1c1c(O)cc(CCCCC)cc1O [CBD, cannabidiol]",Plasma levels after 6 hours,[1],Plasma levels after 6 hours were about 1 ng/ml THC and 1 ng/ml CBD
same,Cmax,[1],8 ng/mL
same,AUC(0-t),[1],~22 ng·h/mL
same,Cmax,[2],2 ng/mL
same,AUC(0-t),[2],~8 ng·h/mL
same,Plasma levels after 6 hours,[2],~0.5 ng/mL
same,residual compound,[4]; after charcoal treatment,approximately 64%
same,residual compound,[4]; without charcoal clean up,~38%
same,relative stability under photochemical stress,[4]; light exposed methanolic CBME solutions,significantly more sensitive to the effects of light than is THC; also recorded: markedly less stable than THC
same,time to degradation to non-detectable levels,"[4]; no charcoal treatment, all light exposures except amber glass, foil and −20° storage, 1 mg/ml CBME in methanol",< 40 days
"CCCc1cc(O)c2c(c1)OC(C)(C)[C@@H]1CCC(C)=C[C@@H]21 [THCV, Δ^9-tetrahydrocannabinol propyl analogue]",hangover,[10],less severe hangover
same,mood enhancement as reported by subjects,[10],less disturbing than that produced by THC
